From patent US9255100B2 (BAYER INTELLECTUAL PROPERTY GMBH, priority 2010, dated 2016)

target: T1, N-terminally GST-tagged human full length recombinant Mps-1 kinase (Homo sapiens, UniProt P33981); assay: Mps-1 kinase assay (TR-FRET); assay type: biochemical; details: Mps1 IC50 [nM], 10 μM ATP, 1 μM peptide substrate, 60 min at 22° C.
T1 construct: N-terminally GST-tagged human full length recombinant Mps-1 kinase; purchased Invitrogen, Karslruhe, Germany PV4071
T1 sequence (P33981 1-857): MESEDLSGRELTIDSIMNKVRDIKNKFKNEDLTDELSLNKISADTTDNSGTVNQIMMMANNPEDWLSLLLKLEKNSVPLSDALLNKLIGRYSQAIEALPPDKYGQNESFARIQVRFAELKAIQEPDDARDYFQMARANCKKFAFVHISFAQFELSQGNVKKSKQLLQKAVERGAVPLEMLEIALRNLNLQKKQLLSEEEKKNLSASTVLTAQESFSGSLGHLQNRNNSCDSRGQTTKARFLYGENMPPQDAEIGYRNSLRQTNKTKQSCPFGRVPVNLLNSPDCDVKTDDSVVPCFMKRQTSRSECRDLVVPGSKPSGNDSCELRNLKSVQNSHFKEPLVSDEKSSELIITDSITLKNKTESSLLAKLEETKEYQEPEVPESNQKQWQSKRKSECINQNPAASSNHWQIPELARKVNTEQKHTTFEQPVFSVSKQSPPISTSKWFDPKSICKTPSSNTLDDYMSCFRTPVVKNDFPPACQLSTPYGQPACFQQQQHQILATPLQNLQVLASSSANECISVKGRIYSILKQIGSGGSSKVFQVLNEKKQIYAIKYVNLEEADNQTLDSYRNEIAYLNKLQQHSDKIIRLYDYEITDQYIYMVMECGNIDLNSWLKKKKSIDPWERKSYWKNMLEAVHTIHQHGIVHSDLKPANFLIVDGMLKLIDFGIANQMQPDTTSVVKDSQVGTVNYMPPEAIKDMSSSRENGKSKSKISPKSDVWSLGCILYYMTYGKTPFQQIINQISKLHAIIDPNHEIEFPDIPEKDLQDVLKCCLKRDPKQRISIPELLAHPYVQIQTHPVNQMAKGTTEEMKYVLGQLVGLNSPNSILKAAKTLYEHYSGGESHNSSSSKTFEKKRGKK
Method in brief: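 Inhibition of Mps-1 (N-terminal GST fusion, full length) toward a biotinylated peptide is read as Eu-to-XLent TR-FRET. Enzyme level, around 1 nM final, follows lot activity.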

| IC50 | SMILES |
| --- | --- |
| 0.2 nM | Cc1cc(-c2cnc3c(NCCC(F)(F)F)cc(Nc4cccnc4)nn23)ccc1C(=O)NC1CC1 [Example 439, N-cyclopropyl-2-methyl-4-{6-(pyridin-3-ylamino)-8-[(3,3,3-trifluoropropyl)amino]imidazo[1,2-b]pyridazin-3-yl}benzamide] |
| 0.1 nM | Cc1cc(-c2cnc3c(NCCC(F)(F)F)cc(Nc4ccc(F)nc4)nn23)ccc1C(=O)NC1CC1 [Example 440, N-cyclopropyl-4-{6-[(6-fluoropyridin-3-yl)-amino]-8-[(3,3,3-trifluoropropyl)amino]imidazo[1,2-b]pyridazin-3-yl}-2-methylbenzamide] |
| 0.1 nM | Cc1cc(-c2cnc3c(NCCC(F)(F)F)cc(Nc4ccc(F)c(O)c4)nn23)ccc1C(=O)NC1CC1 [Example 442, N-cyclopropyl-4-{6-[(4-fluoro-3-hydroxyphenyl)amino]-8-[(3,3,3-trifluoropropyl)amino]imidazo[1,2-b]pyridazin-3-yl}-2-methylbenzamide] |
| 0.1 nM | Cc1ccc(O)cc1Nc1cc(NCCC(F)(F)F)c2ncc(-c3ccc(C(=O)NC4CC4)c(C)c3)n2n1 [Example 443, N-cyclopropyl-4-{6-[(5-hydroxy-2-methylphenyl)amino]-8-[(3,3,3-trifluoropropyl)amino]imidazo[1,2-b]pyridazin-3-yl}-2-methylbenzamide] |
| 1.1 nM | Cc1cc(-c2cnc3c(NCCCC(F)(F)F)cc(Nc4ccc(F)c(F)c4)nn23)ccc1C(=O)NC1CC1 [Example 447, N-cyclopropyl-4-{6-[(3,4-difluorophenyl)amino]-8-[(4,4,4-trifluorobutyl)amino]imidazo[1,2-b]pyridazin-3-yl}-2-methylbenzamide] |
| 0.6 nM | Cc1ccc(F)cc1Nc1cc(NCCCC(F)(F)F)c2ncc(-c3ccc(C(=O)NC4CC4)c(C)c3)n2n1 [Example 448, N-cyclopropyl-4-{6-[(5-fluoro-2-methylphenyl)amino]-8-[(4,4,4-trifluorobutyl)amino]imidazo[1,2-b]pyridazin-3-yl}-2-methylbenzamide] |
| 0.3 nM | Cc1cc(-c2cnc3c(NCCCC(F)(F)F)cc(Nc4cccc(F)c4F)nn23)ccc1C(=O)NC1CC1 [Example 450, N-cyclopropyl-4-{6-[(2,3-difluorophenyl)amino]-8-[(4,4,4-trifluorobutyl)amino]imidazo[1,2-b]pyridazin-3-yl}-2-methylbenzamide] |
| 1.3 nM | Cc1ccc(Cl)cc1Nc1cc(NCCCC(F)(F)F)c2ncc(-c3ccc(C(=O)NC4CC4)c(C)c3)n2n1 [Example 451, 4-{6-[(5-chloro-2-methylphenyl)amino]-8-[(4,4,4-trifluorobutyl)amino]imidazo[1,2-b]pyridazin-3-yl}-N-cyclopropyl-2-methylbenzamide] |
| 0.1 nM | Cc1cc(-c2cnc3c(NCCC(F)(F)F)cc(Nc4cccc(O)c4C)nn23)ccc1C(=O)NC1CC1 [Example 454, N-cyclopropyl-4-{6-[(3-hydroxy-2-methylphenyl)amino]-8-[(3,3,3-trifluoropropyl)amino]imidazo[1,2-b]pyridazin-3-yl}-2-methylbenzamide] |
| 5.4 nM | COc1cc(F)ccc1Nc1cc(NCCCC(F)(F)F)c2ncc(-c3ccc(C(=O)NC4CC4)c(C)c3)n2n1 [Example 457, N-cyclopropyl-4-{6-[(4-fluoro-2-methoxyphenyl)amino]-8-[(4,4,4-trifluorobutyl)amino]imidazo[1,2-b]pyridazin-3-yl}-2-methylbenzamide] |
| 0.4 nM | Cc1cccc(Oc2cc(NCCC(F)(F)F)c3ncc(-c4ccc(C(=O)NC5CC5)c(C)c4)n3n2)c1 [Example 470, N-cyclopropyl-2-methyl-4-{6-(3-methylphenoxy)-8-[(3,3,3-trifluoro-propyl)amino]imidazo [1,2-b]pyridazin-3-yl} benzamide] |

Further lines, the compound ahead of its results:

| SMILES | IC50 |
| --- | --- |
| Cc1cc(-c2cnc3c(NCC(C)(C)O)cc(Nc4ccccc4CO)nn23)ccc1C(=O)NC1CC1 [Example 434, N-cyclopropyl-4-(6-{[2-(hydroxymethyl)phenyl]amino}-8-[(2-hydroxy-2-methylpropyl)amino]imidazo[1,2-b]pyridazin-3-yl)-2-methylbenzamide] | 1.3 nM |
| Cc1cc(-c2cnc3c(NCC(C)(C)O)cc(Nc4ccc(CCN)cc4)nn23)ccc1C(=O)NC1CC1 [Example 435, 4-(6-{[4-(2-aminoethyl)phenyl]amino}-8-[(2-hydroxy-2-methylpropyl)amino]imidazo[1,2-b]pyridazin-3-yl)-N-cyclopropyl-2-methylbenzamide] | 1.6 nM |
| Cc1cc(-c2cnc3c(NCCC(F)(F)F)cc(Oc4ccc(F)nc4)nn23)ccc1C(=O)NC1CC1 [Example 436, N-cyclopropyl-4-{6-[(6-fluoropyridin-3-yl)oxy]-8-[(3,3,3-trifluoropropyl)amino]imidazo[1,2-b]pyridazin-3-yl}-2-methylbenzamide] | 0.1 nM |
| Cc1cc(-c2cnc3c(NCCC(F)(F)F)cc(Oc4cccc(C(C)C)c4O)nn23)ccc1C(=O)NC1CC1 [Example 441, N-cyclopropyl-4-{6-[2-hydroxy-3-(propan-2-yl)phenoxy]-8-[(3,3,3-trifluoropropyl)amino]imidazo[1,2-b]pyridazin-3-yl}-2-methylbenzamide] | 0.5 nM |
| Cc1cc(-c2cnc3c(NCC(C)(C)O)cc(Nc4cccc(O)c4)nn23)ccc1C(=O)NC1CC1 [Example 446, N-cyclopropyl-4-{8-[(2-hydroxy-2-methylpropyl)amino]-6-[(3-hydroxyphenyl)amino]imidazo[1,2-b]pyridazin-3-yl}-2-methylbenzamide] | 0.4 nM |
| Cc1cc(F)cc(Sc2cc(NCCCC(F)(F)F)c3ncc(-c4ccc(C(=O)NC5CC5)c(C)c4)n3n2)c1 [Example 449, N-cyclopropyl-4-{6-[(3-fluoro-5-methylphenyl)sulfanyl]-8-[(4,4,4-trifluorobutyl)amino]imidazo[1,2-b]pyridazin-3-yl}-2-methylbenzamide] | 0.6 nM |
| Cc1cc(F)cc(Oc2cc(NCCCC(F)(F)F)c3ncc(-c4ccc(C(=O)NC5CC5)c(C)c4)n3n2)c1 [Example 452, N-cyclopropyl-4-{6-(3-fluoro-5-methylphenoxy)-8-[(4,4,4-trifluorobutyl)amino]imidazo[1,2-b]pyridazin-3-yl}-2-methylbenzamide] | 0.8 nM |
| CSc1cccc(Oc2cc(NCC(C)(C)O)c3ncc(-c4ccc(C(=O)NC5CC5)c(C)c4)n3n2)c1F [Example 458, N-cyclopropyl-4-{6-[2-fluoro-3-(methylsulfanyl)phenoxy]-8-[(2-hydroxy-2-methylpropyl)amino]imidazo[1,2-b]pyridazin-3-yl}-2-methylbenzamide] | 1.1 nM |
| COC1(NC(=O)c2ccc(-c3cnc4c(NCCC(F)(F)F)cc(Oc5cccc(F)c5)nn34)cc2C)CC1 [Example 460, 4-{6-(3-fluorophenoxy)-8-[(3,3,3-trifluoropropyl)amino]imidazo[1,2-b]pyridazin-3-yl}-N-(1-methoxycyclopropyl)-2-methylbenzamide] | 0.3 nM |
| Cc1cc(-c2cnc3c(NCCC(F)(F)F)cc(Oc4cncc(F)c4)nn23)ccc1C(=O)NC1CC1 [Example 464, N-cyclopropyl-4-{6-[(5-fluoropyridin-3-yl)oxy]-8-[(3,3,3-trifluoropropyl)amino]imidazo[1,2-b]pyridazin-3-yl}-2-methylbenzamide] | 0.1 nM |
| Cc1cc(-c2cnc3c(NCCC(F)(F)F)cc(Oc4cccc5c4NCCC5)nn23)ccc1C(=O)NC1CC1 [Example 466, N-cyclopropyl-2-methyl-4-{6-(1,2,3,4-tetrahydro-quinolin-8-yloxy)-8-[(3,3,3-trifluoropropyl)amino]imidazo[1,2-b]pyridazin-3-yl} benzamide] | 4.8 nM |
| Cc1cc(-c2cnc3c(NCCC(F)(F)F)cc(N4CCCc5cccc(O)c54)nn23)ccc1C(=O)NC1CC1 [Example 467, N-cyclopropyl-4-{6-(8-hydroxy-3,4-dihydro-quinolin-1(2H)-yl)-8-[(3,3,3-trifluoropropyl)amino]imidazo[1,2-b]pyridazin-3-yl}-2-methyl-benzamide] | 1.6 nM |
| Cc1cc(-c2cnc3c(NCCC(F)(F)F)cc(Oc4cccc5ccc(=O)[nH]c45)nn23)ccc1C(=O)NC1CC1 [Example 468, N-cyclopropyl-2-methyl-4-{6-[(2-oxo-1,2-dihydro-quinolin-8-yl)oxy]-8-[(3,3,3-trifluoropropyl)amino]imidazo[1,2-b]pyridazin-3-yl} benzamide] | 7.5 nM |
| Cc1cc(-c2cnc3c(NCCC(F)(F)F)cc(Oc4cccc5c4CCN(C)C5)nn23)ccc1C(=O)NC1CC1 [Example 469, N-cyclopropyl-2-methyl-4-{6-[(2-methyl-1,2,3,4-tetrahydroisoquinolin-5-yl)oxy]-8-[(3,3,3-trifluoropropyl)amino]imidazo[1,2-b]pyridazin-3-yl}benzamide] | 1.7 nM |
